Laboratory results from patent US20240116985A1, “STAPLED PEPTIDES AND METHODS THEREOF” (priority 2020, published 2024).
pIC50: −log10 of the molar value. Values after ≈ are worked out from the molar mass of the structure shown. Like-named read-outs stand apart in the source and are kept apart here.

Assays:
[1] = biological target: T1, full-length beta-Catenin (Uniprot ID P35222) (Homo sapiens, UniProt P35222); experiment: Fluorescence polarization IC50 (beta-catenin / 5FAM-TCF4 10-53 competition); assay type: binding; settings: fluorescence polarization; read-out: beta-Catenin FP IC50
T1 construct: 10 nM full-length beta-Catenin (Uniprot ID P35222)
T1 sequence (P35222 1-781): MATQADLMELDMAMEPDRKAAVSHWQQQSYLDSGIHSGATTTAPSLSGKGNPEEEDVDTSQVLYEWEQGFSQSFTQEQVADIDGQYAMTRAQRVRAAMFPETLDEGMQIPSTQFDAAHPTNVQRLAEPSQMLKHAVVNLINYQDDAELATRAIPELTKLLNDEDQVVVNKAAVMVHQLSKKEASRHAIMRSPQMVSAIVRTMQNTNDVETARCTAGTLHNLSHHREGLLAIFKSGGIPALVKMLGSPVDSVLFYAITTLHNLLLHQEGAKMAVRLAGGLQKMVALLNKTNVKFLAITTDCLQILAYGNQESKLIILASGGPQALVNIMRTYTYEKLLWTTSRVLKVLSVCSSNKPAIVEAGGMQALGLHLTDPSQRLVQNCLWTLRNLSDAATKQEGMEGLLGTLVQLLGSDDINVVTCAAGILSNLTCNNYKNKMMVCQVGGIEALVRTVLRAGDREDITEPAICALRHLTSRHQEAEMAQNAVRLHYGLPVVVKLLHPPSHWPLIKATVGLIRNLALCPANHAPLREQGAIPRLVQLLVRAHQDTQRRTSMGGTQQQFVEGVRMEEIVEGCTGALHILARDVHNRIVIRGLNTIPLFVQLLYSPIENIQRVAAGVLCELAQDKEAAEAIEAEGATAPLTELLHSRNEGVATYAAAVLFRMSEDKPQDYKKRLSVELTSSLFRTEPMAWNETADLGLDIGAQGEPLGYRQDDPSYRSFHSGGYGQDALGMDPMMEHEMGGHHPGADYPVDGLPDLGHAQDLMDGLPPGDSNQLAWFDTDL

[2] = biological target: T2, beta-catenin/TCF4 engagement (Homo sapiens, UniProt P35222); experiment: Nano-BRET target engagement assay (B-cat-Halo & TCF4-Luc in HEK293 cells); assay type: cell-based; settings: absolute IC50; read-out: NanoBRET Abs IC50
T2 construct: expressed in transfected cells; host or cells: HEK293
T2 sequence (P35222 1-781): T1 sequence (P35222 1-781)

[3] = Solubility in PBS; assay type: physicochemical
Procedure, shortened: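 Steps: ultracentrifuge the peptide PBS solution, inject the supernatant on HPLC, inject a 50 μM peptide DMSO solution as reference, then calculate solubility as area ratio (PBS/DMSO) × 50 uM.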

pIC50 [1] | pIC50 [2] | Solubility [3] | Solubility ([3]; Solubility (uM)) | SMILES
6.91 | < 4.70 | 10 µM (≈ 19.1 µg/mL) |  | CC(=O)N1CCC[C@]12CC=CCCCC1(CCCC=CCCCOC(=O)N3CC[C@@](C(=O)N[C@@H](Cc4ccccc4Cl)C(=O)N[C@@H](Cc4csc5ccccc45)C(=O)N[C@H](CO)[C@@H](C)O)(C3)NC(=O)[C@H]([C@@H](C)O)NC(=O)[C@H](Cc3ccccc3)NC(=O)[C@H](C)NC(=O)[C@H](C)NC(=O)[C@H]([C@@H](C)O)NC(=O)[C@H](CC(=O)O)NC1=O)NC(=O)[C@H](CC1CCCCC1)NC(=O)[C@H](CC(=O)O)NC2=O (stereo partly drawn) [I-1310, Ac-PL3-Asp-Cha-B5-Asp-Thr-Ala-Ala-Phe-Thr-PyrS2-2ClF-BztA-Thro1]
7.51 | 4.47 | 10 µM (≈ 18.8 µg/mL) |  | CC(=O)N1CCC[C@]12CC=CCCCC1(CCCC=CCCCOC(=O)N3CC[C@@](C(=O)N[C@@H](Cc4ccsc4)C(=O)N[C@@H](Cc4csc5ccccc45)C(=O)N[C@H](CO)[C@@H](C)O)(C3)NC(=O)[C@H](CC(C)C)NC(=O)[C@H](Cc3ccccc3)NC(=O)[C@H](C)NC(=O)[C@H](C)NC(=O)[C@H](CC(=O)O)NC(=O)[C@H](CC(=O)O)NC1=O)NC(=O)[C@H](CC(C)(C)C)NC(=O)[C@H](CC(N)=O)NC2=O (stereo partly drawn) [I-1304, Ac-PL3-Asn-Npg-B5-Asp-Asp-Ala-Ala-Phe-Leu-PyrS2-3Thi-BztA-Thro1]
8.05 | 5.01 |  | 22 µM (≈ 44.4 µg/mL) | CC(=O)N1CCC[C@]12CC=CCCCC1(CCCC=CCCCOC(=O)N3CC[C@@](C(=O)N[C@@H](Cc4ccsc4)C(=O)N[C@@H](Cc4csc5ccccc45)C(=O)N[C@@H](CCC(N)=O)C(N)=O)(C3)NC(=O)[C@H](Cc3ccc(C(F)(F)F)cc3)NC(=O)[C@H](Cc3ccccc3)NC(=O)[C@H](C)NC(=O)[C@H](C)NC(=O)[C@H](CC(=O)O)NC(=O)[C@H](CC(=O)O)NC1=O)NC(=O)[C@H](CC(C)(C)C)NC(=O)[C@H](CC(=O)O)NC2=O (stereo partly drawn) [I-1365, Ac-PL3-Asp-Npg-B5-Asp-Asp-Ala-Ala-Phe-4F3MeF-PyrS2-3Thi-BztA-Gln-NH2]
7.23 | 4.54 | 10 µM (≈ 18.8 µg/mL) |  | CC(=O)N1CCC[C@]12CC=CCCCC1(CCCC=CCCCOC(=O)N3CC[C@@](C(=O)N[C@@H](Cc4ccccc4Cl)C(=O)N[C@@H](Cc4csc5ccccc45)C(=O)N[C@H](CO)[C@@H](C)O)(C3)NC(=O)[C@H]([C@@H](C)O)NC(=O)[C@H](Cc3ccccc3)NC(=O)[C@H](C)NC(=O)[C@H](C)NC(=O)[C@H]([C@@H](C)O)NC(=O)[C@H](CC(=O)O)NC1=O)NC(=O)[C@H](CC(C)(C)C)NC(=O)[C@H](CC(=O)O)NC2=O (stereo partly drawn) [I-1309, Ac-PL3-Asp-Npg-B5-Asp-Thr-Ala-Ala-Phe-Thr-PyrS2-2C1F-BztA-Thro1]
7.66 | 4.61 | 10 µM (≈ 19.9 µg/mL) |  | CC(=O)N1CCC[C@]12CC=CCCCC1(CCCC=CCCCOC(=O)N3CC[C@@](C(=O)N[C@@H](Cc4ccccc4Cl)C(=O)N[C@@H](Cc4csc5ccccc45)C(=O)N[C@@H](CC(C)C)C(N)=O)(C3)NC(=O)[C@H](CCCCNC(C)C)NC(=O)[C@H](Cc3ccccc3)NC(=O)[C@H](C)NC(=O)[C@H](C)NC(=O)[C@H](CC(=O)O)NC(=O)[C@H](CC(=O)O)NC1=O)NC(=O)[C@H](CC(C)(C)C)NC(=O)[C@H](CC(=O)O)NC2=O (stereo partly drawn) [I-1280, Ac-PL3-Asp-Npg-B5-Asp-Asp-Ala-Ala-Phe-iPrLys-PyrS2-2C1F-BztA-Leu-NH2]
8.00 | 4.58 |  | 44 µM (≈ 84.9 µg/mL) | CC(=O)N1CCC[C@]12CC=CCCCC1(CCCC=CCCCOC(=O)N3CC[C@@](C(=O)N[C@@H](Cc4ccccc4F)C(=O)N[C@@H](Cc4csc5ccccc45)C(=O)N[C@@H](CCC(N)=O)C(N)=O)(C3)NC(=O)[C@H](CC(N)=O)NC(=O)[C@H](Cc3ccccc3)NC(=O)[C@H](C)NC(=O)[C@H](C)NC(=O)[C@H](CC(=O)O)NC(=O)[C@H](CC(=O)O)NC1=O)NC(=O)[C@H](CC(C)(C)C)NC(=O)[C@H](CC(=O)O)NC2=O (stereo partly drawn) [I-1320, Ac-PL3-Asp-Npg-B5-Asp-Asp-Ala-Ala-Phe-Asn-PyrS2-2FF-BztA-Gln-NH2]
8.00 | 4.65 |  | 14 µM (≈ 28.2 µg/mL) | CC(=O)N1CCC[C@]12CC=CCCCC1(CCCC=CCCCOC(=O)N3CC[C@@](C(=O)N[C@@H](Cc4ccccc4Cl)C(=O)N[C@@H](Cc4csc5ccccc45)C(=O)N[C@@H](CCC(N)=O)C(N)=O)(C3)NC(=O)[C@H](CCCCNC(C)C)NC(=O)[C@H](Cc3ccccc3)NC(=O)[C@H](C)NC(=O)[C@H](C)NC(=O)[C@H](CCC(=O)O)NC(=O)[C@H](CC(=O)O)NC1=O)NC(=O)[C@H](CC(C)(C)C)NC(=O)[C@H](CC(=O)O)NC2=O (stereo partly drawn) [I-1281, Ac-PL3-Asp-Npg-B5-Asp-Glu-Ala-Ala-Phe-iPrLys-PyrS2-2C1F-BztA-Gln-NH2]
7.92 | 4.64 |  | 14 µM (≈ 27.7 µg/mL) | CC(=O)N1CCC[C@]12CC=CCCCC1(CCCC=CCCCOC(=O)N3CC[C@@](C(=O)N[C@@H](Cc4ccccc4Cl)C(=O)N[C@@H](Cc4csc5ccccc45)C(=O)N[C@H](C(N)=O)[C@@H](C)O)(C3)NC(=O)[C@H](CCCCNC(C)C)NC(=O)[C@H](Cc3ccccc3)NC(=O)[C@H](C)NC(=O)[C@H](C)NC(=O)[C@H](CC(=O)O)NC(=O)[C@H](CC(=O)O)NC1=O)NC(=O)[C@H](CC(C)(C)C)NC(=O)[C@H](CC(=O)O)NC2=O (stereo partly drawn) [I-1279, Ac-PL3-Asp-Npg-B5-Asp-Asp-Ala-Ala-Phe-iPrLys-PyrS2-2C1F-BztA-Thr-NH2]

More lines, now with the values behind:

SMILES | pIC50 [1] | pIC50 [2] | Solubility [3] | Solubility ([3]; Solubility (uM))
CC(=O)N1CCC[C@]12CC=CCCCC1(CCCC=CCCCOC(=O)N3CC[C@@](C(=O)N[C@@H](Cc4ccccc4Cl)C(=O)N[C@@H](Cc4csc5ccccc45)C(=O)N[C@@H](CO)C(N)=O)(C3)NC(=O)[C@H]([C@@H](C)O)NC(=O)[C@H](Cc3ccccc3)NC(=O)[C@H](C)NC(=O)[C@H](CC(C)C)NC(=O)[C@H](CC(=O)O)NC(=O)[C@H](CC(=O)O)NC1=O)NC(=O)[C@H](CC1CCCCC1)NC(=O)[C@H](CC(=O)O)NC2=O (stereo partly drawn) [I-1150, Ac-PL3-Asp-Cha-B5-Asp-Asp-Leu-Ala-Phe-Thr-PyrS2-2C1F-BztA-Ser-NH2] | 7.92 | 4.67 |  | 18 µM (≈ 35.3 µg/mL)
CC(=O)N1CCC[C@]12CC=CCCCC1(CCCC=CCCCOC(=O)N3CC[C@@](C(=O)N[C@@H](Cc4ccccc4Cl)C(=O)N[C@@H](Cc4csc5ccccc45)C(=O)N[C@@H](CCC(N)=O)C(N)=O)(C3)NC(=O)[C@H](CCCCNC(C)C)NC(=O)[C@H](Cc3ccccc3)NC(=O)[C@H](C)NC(=O)[C@H](C)NC(=O)[C@H](CC(=O)O)NC(=O)[C@H](CC(=O)O)NC1=O)NC(=O)[C@H](CC(C)(C)C)NC(=O)[C@H](CC(=O)O)NC2=O (stereo partly drawn) [I-1278, Ac-PL3-Asp-Npg-B5-Asp-Asp-Ala-Ala-Phe-iPrLys-PyrS2-2C1F-BztA-Gln-NH2] | 8.00 | 4.74 |  | 25 µM (≈ 50.1 µg/mL)
CC(=O)N1CCC[C@]12CC=CCCCC1(CCCC=CCCCOC(=O)N3CC[C@@](C(=O)N[C@@H](Cc4ccsc4)C(=O)N[C@@H](Cc4csc5ccccc45)C(=O)N[C@@H](CCC(N)=O)C(N)=O)(C3)NC(=O)[C@H](CC(C)C)NC(=O)[C@H](Cc3ccccc3)NC(=O)[C@H](C)NC(=O)[C@H](C)NC(=O)[C@H]([C@@H](C)O)NC(=O)[C@H](CC(=O)O)NC1=O)NC(=O)[C@H](CC(C)(C)C)NC(=O)[C@H](CC(=O)O)NC2=O (stereo partly drawn) [I-1167, Ac-PL3-Asp-Npg-B5-Asp-Thr-Ala-Ala-Phe-Leu-PyrS2-3Thi-BztA-Gln-NH2] | 7.47 | 4.93 | 10 µM (≈ 19 µg/mL) | 
CC(=O)N1CCC[C@]12CC=CCCCC1(CCCC=CCCCOC(=O)N3CC[C@@](C(=O)N[C@@H](Cc4ccsc4)C(=O)N[C@@H](Cc4csc5ccccc45)C(=O)N[C@@H](CCC(N)=O)C(N)=O)(C3)NC(=O)[C@H]([C@@H](C)O)NC(=O)[C@H](Cc3ccccc3)NC(=O)[C@H](C)NC(=O)[C@H](C)NC(=O)[C@H]([C@@H](C)O)NC(=O)[C@H](CC(=O)O)NC1=O)NC(=O)[C@H](CC1CCCCC1)NC(=O)[C@H](CC(=O)O)NC2=O (stereo partly drawn) [I-1173, Ac-PL3-Asp-Cha-B5-Asp-Thr-Ala-Ala-Phe-Thr-PyrS2-3Thi-BztA-Gln-NH2] | 7.92 | 4.76 | 10 µM (≈ 19.2 µg/mL) | 
CC(=O)N1CCC[C@]12CC=CCCCC1(CCCC=CCCCOC(=O)N3CC[C@@](C(=O)N[C@@H](Cc4cccc5ccccc45)C(=O)N[C@@H](Cc4csc5ccccc45)C(=O)N[C@@H](CO)C(N)=O)(C3)NC(=O)[C@H]([C@@H](C)O)NC(=O)[C@H](Cc3ccccc3)NC(=O)[C@H](C)NC(=O)[C@H](C)NC(=O)[C@H]([C@@H](C)O)NC(=O)[C@H](CC(=O)O)NC1=O)NC(=O)[C@H](CC(C)(C)C)NC(=O)[C@H](CC(=O)O)NC2=O (stereo partly drawn) [I-1269, Ac-PL3-Asp-Npg-B5-Asp-Thr-Ala-Ala-Phe-Thr-PyrS2-1NapA-BztA-Ser-NH2] | 6.76 | 4.75 | 10 µM (≈ 18.9 µg/mL) | 
